Read-outs that look alike come from different tables or passages of the source.
How the values were obtained:
[1] = test system: HEK293_GS-KO host cell line; settings: glutamine-free selection medium
Protocol: (§1) First, the cells were inoculated in T-25 flask containing 5 ml of DMEM supplemented with 1×GSEM, 7% (v/v) FBS and glutamine at the density of 4×10^5 cells/ml. 24 hours later, when the cultured cells reached 90% of confluency in the flask, the vector containing a target protein gene mixed with liposome was additionally added to the gs gene knockout HEK293 cell line prepared in Experimental Example 1. 24 hours later, the selection marker protein (GS) inhibitor MSX was treated to the selection medium (glutamine-free DMEM supplemented with 1×GSEM and 10% (v/v) dFBS) at the concentrations of 0 μM, 25 μM, 50 μM, and 100 μM. The cells introduced with the vector were inoculated in the 96 well plate by 200 μl/well. The wild type HEK293 host cell line was also introduced with a target protein gene by the same manner as described above, followed by the selection from the 96 well plate. The cell concentration for the inoculation into the 96 well plate was determined by the concentration at which only one clone would survive after 3 weeks of selection period. To select the MSX resistant cell line (transformed cell line), the cells showing MSX resistance could be collected as a pool or prepared as each individual clone and herein the cell line was collected as an individual clone.
(§2) In the table above, “survival rate” was obtained by dividing the number of all the wells containing the cell by the number of the total inoculated wells.
(§3) The cells inoculated in a 96 well plate were observed under microscope and the medium was replaced every 5˜7 days. […] The collected cells were inoculated in a 48 well plate (500 μl). When the cells were grown in the well, the cells were inoculated again in a 24 well plate (1 ml). When the cells were fully grown in the 24 well plate, the cells were collected and inoculated in another 24 well plate containing 1 ml of culture medium at the density of 1×10^5 cells/ml. To quantify the production of the target protein, batch culture was performed for 6 days. On the 6th day, the medium was collected and ELISA was performed with the target protein to measure the productivity of each clone. By the method above, 50 clones originated from the gs knockout HEK93 cell line were constructed each in the presence of 0 μM, 25 μM, and 50 μM of MSX. 50 control clones originated from the wild type HEK293 cell line were also constructed for comparison.
(§4) In the Table above, “selection efficiency” indicates the portion of high production clones (those clones that could produce a target protein at least 1 μg/μl until the 6th day) in 50 constructed clones at each condition.

[2] = test system: wild type HEK293 host cell line; settings: glutamine-free selection medium
Protocol: as §1, §2, §3, §4

[3] = test system: HEK293 cell line; settings: glutamine-free EX-CELL 293 SFM, MSX 0-1000 μM, suspension culture
Protocol: The cell growth rate and the cell viability were investigated in the course of culture of HEK293 cell line with the addition of different concentrations of MSX.
Particularly, HEK293 host cells were inoculated in 50 ml of the glutamine-free EX-CELL® 293 SFM medium (Sigma), and also inoculated in the control medium supplemented with 4 mM glutamine. To the experimental group, MSX, the glutamine synthetase inhibitor, was added at the concentrations of 0 μM, 100 μM, 300 μM, 500 μM, and 1000 μM, respectively. The cell mixture was inoculated in Erlenmeyer flask at the density of 3×10^5 cells/ml, followed by suspension culture. 1 ml of the cell culture fluid was taken from each flask every 24 hours, followed by investigation of the cell concentration and the cell viability.

## CS(=N)(=O)CC[C@H](N)C(=O)O (stereo partly shown) [MSX, methionine sulfoximine]
[1]; MSX 25 μM, inoculation 2000 cells/96 well
  Survival rate: 11.9%
[1]; MSX 50 μM, inoculation 2000 cells/96 well
  Survival rate: 2.3%
[1]; MSX 100 μM, inoculation 5000 cells/96 well
  Survival rate: 0.5%
[2]; MSX 25 μM, inoculation 1 cells/96 well
  Survival rate: 22.9%
[2]; MSX 50 μM, inoculation 10 cells/96 well
  Survival rate: 28.1%
[2]; MSX 100 μM, inoculation 500 cells/96 well
  Survival rate: 75.8%
[3]
  resistance against MSX (cell growth and cell viability): high resistance

— US9567578B1, “Cell line containing a knockout of the glutamine synthetase (GS) gene and a method of producing target proteins using a GS knockout HEK293 cell line” (Korea Advanced Institute of Science and Technology, priority 2016, dated 2017)
